# What was measured:
# [1] = system: TMD8 cells; assay: Combined drug treatment with 5Z-7-Oxozeaenol and ibrutinib, CellTiter-Glo cell viability in TMD8 cell line; type: cell-based
# Protocol: A 40 μL aliquot of CellTiter-Glo® reagent was added directly into each well of the 96-W plate. The plate was then shaken on a Shaker (Labsystem Wellmix) at speed 5 for 10-20 min at room temperature. Next, about 100 μL of the mixed medium was transferred to a white, non-transparent, flat bottom 96-W plate for assaying. A Flexstation 3 luminometer was used for detecting and measuring the luminescent signals. Measurements were taken at room temperature.
# The luminescent measurements were subsequently processed and analyzed using CalcuSyn (CI) and Chalice Analyzer (synergy score). CalcuSyn performs the multiple drug dose-effect calculations using the Median Effect methods described by T-C Chou and P. Talalay in “Analysis of combined drug effects: a new look at a very old problem,” Trends Pharmacol. Sci. 4:450-454 (1983). In general, the resulting combination index (CI) obtained from the Chou-Talalay method defines quantitatively for additive effect (CI=1), synergism (CI<1), and antagonism (CI>1) in drug combinations. Chalice Analyzer utilizes the method described in Lehar et al. “Synergistic drug combinations improve therapeutic selectivity,” Nat. Biotechnol. 27(7):659-666 (2009). Synergy scores is higher than 1 indicate synergy between two compounds, with higher synergy scores indicating better synergy.
# 200 μl of TMD8 wt cells (1.0×10^4 cells) at 5.0×10^4 cells/ml was plated into each well of a 96-well plate. The cells were grown in RPMI-10P medium.
# The TAK1 inhibitor used for this experiment was 5Z-7-oxozeaenol. […] The stock solution for chloroquine diphosphate was prepared at 20 mM concentration. The CellTiter-Glo® assay follow the protocols of Example 1.
# [2] = system: patients who have the activated B-cell like (ABC) subtype of DLBCL; conditions: cited from earlier work
structure (smiles),measurement,setting,value
"COc1cc(O)c2c(c1)/C=C/C[C@H](O)[C@H](O)C(=O)/C=C\C[C@H](C)OC2=O [5Z-7-Oxozeaenol, 5Z-7-oxozeaenol]",luminescent signal (CellTiter-Glo),"[1]; 5Z-7-OXO 1 nM, ibrutinib 0 nM",259932
same,luminescent signal (CellTiter-Glo),"[1]; 5Z-7-OXO 1 nM, ibrutinib 0.00026 nM",249856
same,luminescent signal (CellTiter-Glo),"[1]; 5Z-7-OXO 1 nM, ibrutinib 0.00128 nM",259290
same,luminescent signal (CellTiter-Glo),"[1]; 5Z-7-OXO 1 nM, ibrutinib 0.0064 nM",236187
same,luminescent signal (CellTiter-Glo),"[1]; 5Z-7-OXO 1 nM, ibrutinib 0.032 nM",249545
same,luminescent signal (CellTiter-Glo),"[1]; 5Z-7-OXO 1 nM, ibrutinib 0.16 nM",181569
same,luminescent signal (CellTiter-Glo),"[1]; 5Z-7-OXO 1 nM, ibrutinib 0.8 nM",127363
same,luminescent signal (CellTiter-Glo),"[1]; 5Z-7-OXO 1 nM, ibrutinib 4 nM",98378.9
same,luminescent signal (CellTiter-Glo),"[1]; 5Z-7-OXO 1 nM, ibrutinib 20 nM",98536.7
same,luminescent signal (CellTiter-Glo),"[1]; 5Z-7-OXO 1 nM, ibrutinib 100 nM",78834.1
same,luminescent signal (CellTiter-Glo),"[1]; 5Z-7-OXO 10 nM, ibrutinib 0 nM",277804
same,luminescent signal (CellTiter-Glo),"[1]; 5Z-7-OXO 10 nM, ibrutinib 0.00026 nM",260616
same,luminescent signal (CellTiter-Glo),"[1]; 5Z-7-OXO 10 nM, ibrutinib 0.00128 nM",241442
same,luminescent signal (CellTiter-Glo),"[1]; 5Z-7-OXO 10 nM, ibrutinib 0.0064 nM",223023
same,luminescent signal (CellTiter-Glo),"[1]; 5Z-7-OXO 10 nM, ibrutinib 0.032 nM",222768
same,luminescent signal (CellTiter-Glo),"[1]; 5Z-7-OXO 10 nM, ibrutinib 0.16 nM",175048
same,luminescent signal (CellTiter-Glo),"[1]; 5Z-7-OXO 10 nM, ibrutinib 0.8 nM",120925
same,luminescent signal (CellTiter-Glo),"[1]; 5Z-7-OXO 10 nM, ibrutinib 4 nM",96219.6
same,luminescent signal (CellTiter-Glo),"[1]; 5Z-7-OXO 10 nM, ibrutinib 20 nM",86196
same,luminescent signal (CellTiter-Glo),"[1]; 5Z-7-OXO 10 nM, ibrutinib 100 nM",86511.6
same,luminescent signal (CellTiter-Glo),"[1]; 5Z-7-OXO 100 nM, ibrutinib 0 nM",167090
same,luminescent signal (CellTiter-Glo),"[1]; 5Z-7-OXO 100 nM, ibrutinib 0.00026 nM",168173
same,luminescent signal (CellTiter-Glo),"[1]; 5Z-7-OXO 100 nM, ibrutinib 0.00128 nM",147600
same,luminescent signal (CellTiter-Glo),"[1]; 5Z-7-OXO 100 nM, ibrutinib 0.0064 nM",151829
same,luminescent signal (CellTiter-Glo),"[1]; 5Z-7-OXO 100 nM, ibrutinib 0.032 nM",130054
same,luminescent signal (CellTiter-Glo),"[1]; 5Z-7-OXO 100 nM, ibrutinib 0.16 nM",98728.8
same,luminescent signal (CellTiter-Glo),"[1]; 5Z-7-OXO 100 nM, ibrutinib 0.8 nM",54512.9
same,luminescent signal (CellTiter-Glo),"[1]; 5Z-7-OXO 100 nM, ibrutinib 4 nM",42472
same,luminescent signal (CellTiter-Glo),"[1]; 5Z-7-OXO 100 nM, ibrutinib 20 nM",40678.2
same,luminescent signal (CellTiter-Glo),"[1]; 5Z-7-OXO 100 nM, ibrutinib 100 nM",34016
same,luminescent signal (CellTiter-Glo),"[1]; 5Z-7-OXO 1000 nM, ibrutinib 0 nM",27259.1
same,luminescent signal (CellTiter-Glo),"[1]; 5Z-7-OXO 1000 nM, ibrutinib 0.00026 nM",29868.2
same,luminescent signal (CellTiter-Glo),"[1]; 5Z-7-OXO 1000 nM, ibrutinib 0.00128 nM",25315.4
same,luminescent signal (CellTiter-Glo),"[1]; 5Z-7-OXO 1000 nM, ibrutinib 0.0064 nM",23976.6
same,luminescent signal (CellTiter-Glo),"[1]; 5Z-7-OXO 1000 nM, ibrutinib 0.032 nM",20081.4
same,luminescent signal (CellTiter-Glo),"[1]; 5Z-7-OXO 1000 nM, ibrutinib 0.16 nM",15015.6
same,luminescent signal (CellTiter-Glo),"[1]; 5Z-7-OXO 1000 nM, ibrutinib 0.8 nM",12627.5
same,luminescent signal (CellTiter-Glo),"[1]; 5Z-7-OXO 1000 nM, ibrutinib 4 nM",13032.5
same,luminescent signal (CellTiter-Glo),"[1]; 5Z-7-OXO 1000 nM, ibrutinib 20 nM",13048.3
same,luminescent signal (CellTiter-Glo),"[1]; 5Z-7-OXO 1000 nM, ibrutinib 100 nM",12982.5
same,luminescent signal (CellTiter-Glo),"[1]; 5Z-7-OXO 10000 nM, ibrutinib 0 nM",4563.35
same,luminescent signal (CellTiter-Glo),"[1]; 5Z-7-OXO 10000 nM, ibrutinib 0.00026 nM",4729.05
same,luminescent signal (CellTiter-Glo),"[1]; 5Z-7-OXO 10000 nM, ibrutinib 0.00128 nM",4731.68
same,luminescent signal (CellTiter-Glo),"[1]; 5Z-7-OXO 10000 nM, ibrutinib 0.0064 nM",4700.12
same,luminescent signal (CellTiter-Glo),"[1]; 5Z-7-OXO 10000 nM, ibrutinib 0.032 nM",5299.8
same,luminescent signal (CellTiter-Glo),"[1]; 5Z-7-OXO 10000 nM, ibrutinib 0.16 nM",5307.69
same,luminescent signal (CellTiter-Glo),"[1]; 5Z-7-OXO 10000 nM, ibrutinib 0.8 nM",5441.83
same,luminescent signal (CellTiter-Glo),"[1]; 5Z-7-OXO 10000 nM, ibrutinib 4 nM",5749.55
same,luminescent signal (CellTiter-Glo),"[1]; 5Z-7-OXO 10000 nM, ibrutinib 20 nM",5957.34
same,luminescent signal (CellTiter-Glo),"[1]; 5Z-7-OXO 10000 nM, ibrutinib 100 nM",6244.03
same,CI value for the 5Z-7-Oxozeaenol/ibrutinib combination,[1]; TMD8 cells,0.17
same,synergy score for the 5Z-7-Oxozeaenol/ibrutinib combination,[1]; TMD8 cells,4.63
same,synergy with ibrutinib (in words),[1]; TMD8 cells,Synergy was observed
"C=CC(=O)N1CCC[C@@H](n2nc(-c3ccc(Oc4ccccc4)cc3)c3c(N)ncnc32)C1 [ibrutinib, 1-((R)-3-(4-amino-3-(4-phenoxyphenyl)-1H-pyrazolo[3,4-d]pyrimidin-1-yl)piperidin-1-yl)prop-2-en-1-one]",luminescent signal (CellTiter-Glo),"[1]; 5Z-7-OXO 0 nM, ibrutinib 0.00026 nM",268264
same,luminescent signal (CellTiter-Glo),"[1]; 5Z-7-OXO 0 nM, ibrutinib 0.00128 nM",245879
same,luminescent signal (CellTiter-Glo),"[1]; 5Z-7-OXO 0 nM, ibrutinib 0.0064 nM",240905
same,luminescent signal (CellTiter-Glo),"[1]; 5Z-7-OXO 0 nM, ibrutinib 0.032 nM",249480
same,luminescent signal (CellTiter-Glo),"[1]; 5Z-7-OXO 0 nM, ibrutinib 0.16 nM",190532
same,luminescent signal (CellTiter-Glo),"[1]; 5Z-7-OXO 0 nM, ibrutinib 0.8 nM",126175
same,luminescent signal (CellTiter-Glo),"[1]; 5Z-7-OXO 0 nM, ibrutinib 4 nM",96203.8
same,luminescent signal (CellTiter-Glo),"[1]; 5Z-7-OXO 0 nM, ibrutinib 20 nM",90633.1
same,luminescent signal (CellTiter-Glo),"[1]; 5Z-7-OXO 0 nM, ibrutinib 100 nM",94612.5
same,overall response rate,[2],41%
same,overall survival,[2],9.7 month

# From patent US20170354655A1, “TLR INHIBITOR AND BRUTON'S TYROSINE KINASE INHIBITOR COMBINATIONS” (Pharmacyclics LLC, priority 2014, published 2017)
